Each compound was assayed against human β2 adrenergic receptor (Homo sapiens, UniProt P07550) (assay: cell-based). Conditions: not given.
Sequence of human β2 adrenergic receptor (P07550 whole entry): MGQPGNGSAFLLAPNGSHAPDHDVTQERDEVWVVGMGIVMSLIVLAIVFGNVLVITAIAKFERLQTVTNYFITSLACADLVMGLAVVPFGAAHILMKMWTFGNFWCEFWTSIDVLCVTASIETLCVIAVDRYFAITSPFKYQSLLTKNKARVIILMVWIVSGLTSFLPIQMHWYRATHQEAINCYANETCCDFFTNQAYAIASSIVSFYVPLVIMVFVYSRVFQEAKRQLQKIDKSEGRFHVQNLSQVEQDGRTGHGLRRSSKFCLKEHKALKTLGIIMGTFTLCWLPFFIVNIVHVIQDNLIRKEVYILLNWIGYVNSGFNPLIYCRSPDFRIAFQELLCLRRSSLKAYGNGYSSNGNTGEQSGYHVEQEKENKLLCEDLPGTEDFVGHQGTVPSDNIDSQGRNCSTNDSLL
Protocol: The activity of the test compounds on human β-adrenergic receptors was determined with Chinese hamster ovary (CHO) cells transfected with human β2, or β1 adrenergic receptors. Agonist activity is indicated by increased cAMP levels in the CHO cells. Selectivity of the test compounds for the β3 receptor was assessed by comparison with results in β2 and β1 adrenergic receptor transfected cells.
1). Chinese hamster ovary (CHO) cells transfected with human β2, or β1 adrenergic receptors were used in the assay.
2). Cells were grown to confluent conditions in 24 well plates.
3). Drugs were dissolved in DMSO at a concentration of 10 μM.
4). Cells were incubated with drug at 10 nM concentration for 10 min at 37° C.
5). Cell cAMP concentrations were assayed using a scintillation proximity assay kit from Amersham Corp., Chicago, Ill.
6). Activities for the test compounds are expressed as a percentage of the isoproterenol response.
Production of the CHO cells transfected with human β2, or β1 adrenergic receptors, and compound test procedures utilizing the CHO cells, are described by Emorine et al. in their article "Molecular Characterization of the Human Beta3 -Adrenergic Receptor", Science 1989, 245(8), 1118-1121 and by Muzzin et al. in the article "An Adipose Tissue-Specific Beta3 -Adrenergic Receptor", J. Biol. Chem.1991, 266, 24053-24058.
^a Human β receptors expressed in Chinese hamster ovary cells,
compounds tested at 10 nM, results expressed as % of isoproterenol
activity (increase in cAMP) at 10 μM. EC50 (μM) values
determined for selected compounds.
`CC(Cc1ccc2c(c1)OC(C(=O)O)(C(=O)OCC1CC1)O2)NCC(O)c1cccc(Cl)c1` (centres unmarked) [Example 69, 5-{2-[2-(3-Chloro-phenyl)-2-hydroxy-ethylamino]-propyl}-benzo[1,3]dioxole-2,2-dicarboxylic acid cyclopropylmethyl ester] showed an EC50 of 79 nM.

Same assay, conditions: 10 min; compounds tested at 10 nM, isoproterenol at 10 μM; CHO cells, 10 min at 37° C; read-out: β2: % of isoproterenol activity (increase in cAMP)
Work on `CC(Cc1ccc2c(c1)OC(C(=O)OCC1(C)CC1)(C(=O)OCC1(C)CC1)O2)NCC(O)c1cccc(Cl)c1` (centres unmarked) [Example 39, 5-{2-[2-(3-Chloro-phenyl)-2-hydroxy-ethylamino]-propyl}-benzo[1,3]dioxole-2,2-dicarboxylic acid bis-(1-methyl-cyclopropylmethyl) ester] yielded an activation at 0.01 µM of 1%.
`CC(Cc1ccc2c(c1)OC(C(=O)OCCC1CCCC1)(C(=O)OCCC1CCCC1)O2)NCC(O)c1cccc(Cl)c1` (centres unmarked) [Example 41, 5-{2-[2-(3-Chloro-phenyl)-2-hydroxy-ethylamino]-propyl}-benzo[1,3]dioxole-2,2-dicarboxylic acid bis-(2-cyclopentyl-ethyl) ester] showed an activation at 0.01 µM of 22%.
`CC(=O)OCOC(=O)C1(C(=O)OCOC(C)=O)Oc2ccc(CC(C)NCC(O)c3cccc(Cl)c3)cc2O1` (centres unmarked) [Example 42, 5-{2-[2-(3-Chloro-phenyl)-2-hydroxyethylamino]propyl}benzo[1,3] dioxole-2,2-dicarboxylic acid bis-acetoxymethyl ester] gave an activation at 0.01 µM of 0%.
`CCC(=O)OCOC(=O)C1(C(=O)OCOC(=O)CC)Oc2ccc(CC(C)NCC(O)c3cccc(Cl)c3)cc2O1` (centres unmarked) [Example 43, 5-{2-[2-(3-Chloro-phenyl)-2-hydroxyethylamino]propyl}benzo[1,3] dioxole-2,2-dicarboxylic acid bis-propionyloxymethyl ester] was tested, and the activation at 0.01 µM was 0%.
In the case of `CCCC(=O)OCOC(=O)C1(C(=O)OCOC(=O)CCC)Oc2ccc(CC(C)NCC(O)c3cccc(Cl)c3)cc2O1` (centres unmarked) [Example 44, 5-{2-[2-(3-Chloro-phenyl)-2-hydroxyethylamino]propyl}benzo[1,3] dioxole-2,2-dicarboxylic acid bis-butyryloxymethyl ester], the activation at 0.01 µM is reported as 0%.
`CC(Cc1ccc2c(c1)OC(C(=O)OCOC(=O)C(C)C)(C(=O)OCOC(=O)C(C)C)O2)NCC(O)c1cccc(Cl)c1` (centres unmarked) [Example 45, 5-{2-[2-(3-Chloro-phenyl)-2-hydroxyethylamino]propyl}benzo[1,3] dioxole-2,2-dicarboxylic acid bis-isobutyryloxymethyl ester] was tested, and the activation at 0.01 µM was 1%.
Compound `CCCCCCC(=O)OCOC(=O)C1(C(=O)OCOC(=O)CCCCCC)Oc2ccc(CC(C)NCC(O)c3cccc(Cl)c3)cc2O1` (centres unmarked) [Example 46, 5-{2-[2-(3-Chloro-phenyl)-2-hydroxyethylamino]propyl}benzo[1,3] dioxole-2,2-dicarboxylic acid bis-heptanoyloxymethyl ester] has an activation at 0.01 µM of 16%.
`CC(C)CCC(=O)OCOC(=O)C1(C(=O)OCOC(=O)CCC(C)C)Oc2ccc(CC(C)NCC(O)c3cccc(Cl)c3)cc2O1` (centres unmarked) [Example 47, 5-{2-[2-(3-Chloro-phenyl)-2-hydroxyethylamino]propyl}benzo[1,3] dioxole-2,2-dicarboxylic acid bis-(4-methyl-pentanoyloxymethyl) ester] showed an activation at 0.01 µM of 0%.
For `CCCCCC(=O)OCOC(=O)C1(C(=O)OCOC(=O)CCCCC)Oc2ccc(CC(C)NCC(O)c3cccc(Cl)c3)cc2O1` (centres unmarked) [Example 48, 5-{2-[2-(3-Chloro-phenyl)-2-hydroxyethylamino]propyl}benzo[1,3] dioxole-2,2-dicarboxylic acid bis-hexanoyloxymethyl ester], the activation at 0.01 µM was 4%.
`CC(Cc1ccc2c(c1)OC(C(=O)OCOC(=O)C(C)(C)C)(C(=O)OCOC(=O)C(C)(C)C)O2)NCC(O)c1cccc(Cl)c1` (centres unmarked) [Example 49, 5-{2-[2-(3-Chloro-phenyl)-2-hydroxyethylamino]propyl}benzo[1,3] dioxole-2,2-dicarboxylic acid bis-(2,2-dimethyl-propionyloxymethyl) ester] showed an activation at 0.01 µM of 4%.
Compound `CC(Cc1ccc2c(c1)OC(C(=O)OCOC(=O)C1CCCCC1)(C(=O)OCOC(=O)C1CCCCC1)O2)NCC(O)c1cccc(Cl)c1` (centres unmarked) [Example 50, 5-{2-[2-(3-Chloro-phenyl)-2-hydroxyethylamino]propyl}benzo[1,3] dioxole-2,2-dicarboxylic acid bis-cyclohexanecarbonyloxymethyl ester] has an activation at 0.01 µM of 0%.
With `CCC(=O)OC(C)OC(=O)C1(C(=O)OC(C)OC(=O)CC)Oc2ccc(CC(C)NCC(O)c3cccc(Cl)c3)cc2O1` (centres unmarked) [Example 51, 5-{2-[2-(3-Chloro-phenyl)-2-hydroxyethylamino]propyl}benzo[1,3] dioxole-2,2-dicarboxylic acid bis-(1-propionyloxy-ethyl) ester] the activation at 0.01 µM was 0%.
`CC(Cc1ccc2c(c1)OC(C(=O)OC(C)OC(=O)C(C)(C)C)(C(=O)OC(C)OC(=O)C(C)(C)C)O2)NCC(O)c1cccc(Cl)c1` (centres unmarked) [Example 52] was tested, and the activation at 0.01 µM was 2%.
`CC(Cc1ccc2c(c1)OC(C(=O)OCOC(=O)CC(C)(C)C)(C(=O)OCOC(=O)CC(C)(C)C)O2)NCC(O)c1cccc(Cl)c1` (centres unmarked) [Example 53, 5-{2-[2-(3-Chloro-phenyl)-2-hydroxyethylamino]propyl}benzo[1,3] dioxole-2,2-dicarboxylic acid bis-(3,3-dimethyl-butyryloxymethyl) ester] showed an activation at 0.01 µM of 2%.
`CC(Cc1ccc2c(c1)OC(C(=O)OC(C)OC(=O)CC(C)(C)C)(C(=O)OC(C)OC(=O)CC(C)(C)C)O2)NCC(O)c1cccc(Cl)c1` (centres unmarked) [Example 54] gave an activation at 0.01 µM of 7%.
Compound `CC(Cc1ccc2c(c1)OC(C(=O)OCOC(=O)CCC1CCCC1)(C(=O)OCOC(=O)CCC1CCCC1)O2)NCC(O)c1cccc(Cl)c1` (centres unmarked) [Example 55, 5-{2-[2-(3-Chloro-phenyl)-2-hydroxy-ethylamino]propyl}benzo[1,3]dioxole-2,2-dicarboxylic acid bis-(3-cyclopentyl-propionyloxymethyl) ester] has an activation at 0.01 µM of 0%.
`CC(Cc1ccc2c(c1)OC(C(=O)OCOC(=O)c1ccccc1)(C(=O)OCOC(=O)c1ccccc1)O2)NCC(O)c1cccc(Cl)c1` (centres unmarked) [Example 56, 5-{2-[2-(3-Chloro-phenyl)-2-hydroxy-ethylamino]propyl}benzo[1,3]dioxole-2,2-dicarboxylic acid bis-benzoyloxymethyl ester] gave an activation at 0.01 µM of 8%.
In the case of `CC(Cc1ccc2c(c1)OC(C(=O)OC(C)OC(=O)c1ccccc1)(C(=O)OC(C)OC(=O)c1ccccc1)O2)NCC(O)c1cccc(Cl)c1` (centres unmarked) [Example 57, 5-{2-[2-(3-Chloro-phenyl)-2-hydroxyethylamino]propyl}benzo[1,3] dioxole-2,2-dicarboxylic acid bis-(benzoyloxy-ethyl) ester], the activation at 0.01 µM is reported as 0%.
`CCC(C)(C)C(=O)OCOC(=O)C1(C(=O)OCOC(=O)C(C)(C)CC)Oc2ccc(CC(C)NCC(O)c3cccc(Cl)c3)cc2O1` (centres unmarked) [Example 58, 5-{2-[2-(3-Chloro-phenyl)-2-hydroxyethylamino]propyl}benzo[1,3] dioxole-2,2-dicarboxylic acid bis-(2,2-dimethyl-butyryloxymethyl) ester] gave an activation at 0.01 µM of 8%.
Compound `CC(OC(=O)OC1CCCCC1)OC(=O)C1(C(=O)OC(C)OC(=O)OC2CCCCC2)Oc2ccc(C[C@@H](C)NC[C@H](O)c3cccc(Cl)c3)cc2O1` (stereo partly drawn) [Example 59, 5-{(2R)-2-[(2R)-2-(3-Chloro-phenyl)-2-hydroxy-ethylamino]-propyl}-benzo[1,3]dioxole-2,2-dicarboxylic acid bis-[1-(cyclohexyloxycarbonyloxy)-ethyl] ester] has an activation at 0.01 µM of 10%.
Compound `CC(Cc1ccc2c(c1)OC(C(=O)O)(C(=O)O)O2)N1COC(c2cccc(Cl)c2)C1` (centres unmarked) [Example 66] has an activation at 0.01 µM of 3%.
`CCN(CC)C(=O)COC(=O)C1(C(=O)OCC(=O)N(CC)CC)Oc2ccc(C[C@@H](C)NC[C@H](O)c3cccc(Cl)c3)cc2O1` [Example 68, 5-{(2R)-2-[(2R)-2-(3-Chloro-phenyl)-2-hydroxy-ethylamino]-propyl}-benzo[1,3]dioxole-2,2-dicarboxylic acid bis-diethylcarbamoylmethyl ester] was tested, and the activation at 0.01 µM was 5%.
`CC(Cc1ccc2c(c1)OC(C(=O)O)(C(=O)OCCc1ccsc1)O2)NCC(O)c1cccc(Cl)c1` (centres unmarked) [Example 72, 5-{2-[2-(3-Chloro-phenyl)-2-hydroxy-ethylamino]-propyl}-benzo[1,3]dioxole-2,2-dicarboxylic acid 2-(3-Thienyl)ethyl ester] gave an activation at 0.01 µM of 13%.
Compound `CC(Cc1ccc2c(c1)OC(C(=O)OCCCl)(C(=O)OCCCl)O2)NCC(O)c1cccc(Cl)c1` (centres unmarked) [Example 73, 5-{2-[2-(3-Chloro-phenyl)-2-hydroxy-ethylamino]-propyl}-benzo[1,3]dioxole-2,2-dicarboxylic acid bis 2-(Chloro)ethyl ester] has an activation at 0.01 µM of 0%.

Same assay, conditions: CHO, 10 min, read-out: β2: % of isoproterenol activity (increase in cAMP)
In the case of `CC(Cc1ccc2c(c1)OC(C(N)=O)(C(N)=O)O2)NCC(O)c1cccc(Cl)c1` (centres unmarked) [Example 60, 5-{2-[2-(3-Chloro-phenyl)-2-hydroxy-ethylamino]-propyl}benzo[1,3]dioxole-2,2-dicarboxylic acid bis-amide], the activation at 0.01 µM is reported as 3%.
